{
  "source": "patent US20170196789A1",
  "about": "“REDUCTION OF ORAL AND EPIDERMAL MALODOR IN HUMANS AND ANIMALS” (priority 2014, published 2017)",
  "origin": "cited, not measured here",
  "key": {"[1]": {"details": "in vivo"}, "[2]": {"details": "chlorhexidine exposure, current animal research"}, "[3]": {"details": "after adhesion to the mucus membrane surface"}},
  "data": [
    {"compound": "[H]/N=C(\\N/C(=N/[H])NCCCCCCNC(=N)NC(=N)Nc1ccc(Cl)cc1)Nc1ccc(Cl)cc1", "note": "[chlorhexidine, Chlorhexidine]", "values": [
      {"measurement": "absorption through the digestive system", "setting": "[1]", "value": "minimal"},
      {"measurement": "toxic and/or cancerous effects in animals", "setting": "[2]", "value": "does not demonstrate any evidence of toxic and/or cancerous effects"},
      {"measurement": "share of the total consumed amount remaining in the oral cavity", "setting": "[3]", "value": "Approximately thirty"}
    ]}
  ]
}
